For 22 molecules, activity, MIC and IC50 results are on record in US20200095236A1, “ANTIBACTERIAL COMPOUNDS” (FORGE THERAPEUTICS, INC., priority 2017, published 2020).

pIC50: −log10 of the molar value. Converted amounts (≈) assume the structure as drawn. Where two headings read alike, the source gives them in different places. Bounds are passed on as bounds.

Experiment [1] relates to TLR-4 activity of A. baumannii culture supernatants. In words: TLR4 assay: TLR4 activity of A. baumannii culture supernatants in HEK-Blue-hTLR4 cells. It counts as cell-based. The settings on record: Acinetobacter baumannii, HEK-Blue hTLR4, read-out: % TLR-4 activity. As for the experimental part:
The TLR4 assay measures activity of diluted filter-sterilized A. baumannii culture supernatants. The assay was performed as described in Lin et al, Mbio, 2012. Briefly, A. baumannii was passaged to mid log-phase in the presence of Forge LpxC inhibitors. Culture supernatants were harvested, filter-sterilized and diluted 1:1000. TLR4 activity of the supernatants was tested using HEK-Blue-hTLR4 cells (Invivogen) that carry NF-kB and AP-1 driven SEAP (secreted embryonic alkaline phosphatase) reporter gene.
Exemplary TLR4 assay data (% TLR-4 activity) for compounds in embodiments of the disclosure.

In another experiment the test system is S. aureus. Description: Bacterial susceptibility testing, MIC by broth microdilution (CLSI). It counts as cell-based. To be noted: Staphylococcus aureus, read-out: S. aureus MIC. As for the experimental part:
(§1) Minimal inhibitory concentrations (MIC) were determined by the broth microdilution method in accordance with the Clinical and Laboratory Standards Institute (CLSI) guidelines. In brief, organism suspensions were adjusted to a 0.5 McFarland standard to yield a final inoculum between 3×10^5 and 7×10^5 colony-forming units (CFU)/mL. Drug dilutions and inocula were made in sterile, cation adjusted Mueller-Hinton Broth (Beckton Dickinson). An inoculum volume of 100 μL was added to wells containing 100 μL of broth with 2-fold serial dilutions of drug. All inoculated microdilution trays were incubated in ambient air at 35° C. for 18-24 h. Following incubation, the lowest concentration of the drug that prevented visible growth (OD600 nm<0.05) was recorded as the MIC. Performance of the assay was monitored by the use of laboratory quality-control strains and levofloxacin, a compound with a defined MIC spectrum, in accordance with CLSI guidelines.

A further experiment has as its system E. coli. The experiment is described as above. The settings on record: Escherichia coli, read-out: E. coli MIC. It counts as cell-based. As for the experimental part:
as §1

Another experiment relates to K. pneumoniae. The experiment is described as above. Format: cell-based. The settings on record: Klebsiella pneumoniae, read-out: K. pneumoniae MIC. As for the experimental part:
as §1

The target of a further experiment is E. coli LpxC (Escherichia coli, UniProt P0A725). Description: LpxC Binding Assay (Rapid Fire MS assay). It counts as biochemical.
Sequence of E. coli LpxC (P0A725 whole entry): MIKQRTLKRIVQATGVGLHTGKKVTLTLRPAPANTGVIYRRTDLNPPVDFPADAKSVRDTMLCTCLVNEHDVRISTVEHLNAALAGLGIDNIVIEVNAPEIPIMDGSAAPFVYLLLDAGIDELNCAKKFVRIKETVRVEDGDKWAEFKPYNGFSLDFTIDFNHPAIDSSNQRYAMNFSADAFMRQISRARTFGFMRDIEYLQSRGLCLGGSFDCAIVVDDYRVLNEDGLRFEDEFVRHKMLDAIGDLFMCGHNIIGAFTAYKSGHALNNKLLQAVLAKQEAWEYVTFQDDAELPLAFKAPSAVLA
The mark [2] stands for this setting: broth microdilution, 35° C., 18-24 h.

In general, MIC refers to the lowest concentration found to suppress growth. In general, pIC50 refers to the IC50 on a negative log10 scale, so that one unit is a factor of ten. A high value points to a low IC50.

Regarding `CC(=O)NC[C@@H](Cc1ccc(C#Cc2ccc(CN3CCOCC3)cc2)cc1)c1nc[nH]c(=O)c1O` [Compound 14, (R)-N-(2-(5-hydroxy-6-oxo-1,6-dihydropyrimidin-4-yl)-3-(4-((4-(morpholinomethyl)phenyl)ethynyl)phenyl)propyl)acetamide], the activity at 4 µg/mL in experiment [1] was over 80%. In addition, the activity at 8 µg/mL in experiment [1] is over 80%. Further, in experiment [1], the activity at 16 µg/mL was over 80%. Further, the figures for the MIC in the experiment with S. aureus (setting [2]), with E. coli (setting [2]) and with K. pneumoniae (setting [2]) were over 32 µg/mL, 1 to 8 µg/mL (≈ 2.06 to 16.4 µM) and 8 to 32 µg/mL (≈ 16.4 to 65.8 µM), respectively.

Turning to `COC(=O)NCC(Cc1ccc(C#Cc2ccc(CN3CC4CCC(C3)O4)cc2)cc1)c1nc[nH]c(=O)c1O` (stereo not shown) [Compound 21, methyl (3-(4-((4-((8-oxa-3-azabicyclo[3.2.1]octan-3-yl)methyl)phenyl)ethynyl)phenyl)-2-(5-hydroxy-6-oxo-1,6-dihydropyrimidin-4-yl)propyl)carbamate], the figures for the minimum inhibitory concentration (MIC) in the experiment with S. aureus (setting [2]), in the experiment with E. coli (setting [2]) and with K. pneumoniae (setting [2]) were over 32 µg/mL, 1 to 8 µg/mL (≈ 1.89 to 15.1 µM) and 8 to 32 µg/mL (≈ 15.1 to 60.5 µM), respectively.

For `CC(NC(=O)CF)C(Cc1ccc(C#Cc2ccc(CN3CCOCC3)cc2)cc1)c1nc[nH]c(=O)c1O` (stereo not shown) [Compound 42, 2-fluoro-N-(3-(5-hydroxy-6-oxo-1,6-dihydropyrimidin-4-yl)-4-(4-((4-(morpholinomethyl)phenyl)ethynyl)phenyl)butan-2-yl)acetamide], the MIC in the experiment with S. aureus, in the experiment with E. coli and with K. pneumoniae was over 32 µg/mL throughout.

Turning to `O=C(CF)NCC(Cc1ccc(C#Cc2ccc(CN3CCCC3)cc2)cc1)c1nc[nH]c(=O)c1O` (stereo not shown) [Compound 44, 2-fluoro-N-(2-(5-hydroxy-6-oxo-1,6-dihydropyrimidin-4-yl)-3-(4-((4-(pyrrolidin-1-ylmethyl)phenyl)ethynyl)phenyl)propyl)acetamide], the MIC with S. aureus, in the experiment on E. coli and in the experiment with K. pneumoniae was over 32 µg/mL in each case.

In the case of `N[C@@H]1CCN(Cc2ccc(C#Cc3ccc(CC(CNC(=O)CF)c4nc[nH]c(=O)c4O)cc3)cc2)C1` (stereo partly drawn) [Compound 45, N-(3-(4-((4-(((R)-3-aminopyrrolidin-1-yl)methyl)phenyl)ethynyl)phenyl)-2-(5-hydroxy-6-oxo-1,6-dihydropyrimidin-4-yl)propyl)-2-fluoroacetamide], the MIC in the experiment on S. aureus, with E. coli and with K. pneumoniae was over 32 µg/mL each time.

Turning to `O=C(CN1CCC1)NCC(Cc1ccc(C#Cc2ccc(CN3CCOCC3)cc2)cc1)c1nc[nH]c(=O)c1O` (stereo not shown) [Compound 46, 2-(azetidin-1-yl)-N-(2-(5-hydroxy-6-oxo-1,6-dihydropyrimidin-4-yl)-3-(4-((4-(morpholinomethyl)phenyl)ethynyl)phenyl)propyl)acetamide], the MIC in the experiment with S. aureus (setting [2]), in the experiment on E. coli (setting [2]) and in the experiment with K. pneumoniae (setting [2]) was over 32 µg/mL throughout.

As to `C=CCNCC(Cc1ccc(C#Cc2ccc(CN3CCOCC3)cc2)cc1)c1nc[nH]c(=O)c1O` (stereo not shown) [Compound 56, 6-(1-(allylamino)-3-(4-((4-(morpholinomethyl)phenyl)ethynyl)phenyl)propan-2-yl)-5-hydroxypyrimidin-4(3H)-one], the pIC50 at E. coli LpxC was 7.30 to 8.00.

`C[C@H]1CN(Cc2ccc(C#Cc3ccc(CC(CNCCF)c4nc[nH]c(=O)c4O)cc3)cc2)C[C@H](C)O1` (stereo partly drawn) [Compound 79, 6-(1-(4-((4-(((2S,6S)-2,6-dimethylmorpholino)methyl)phenyl)ethynyl)phenyl)-3-((2-fluoroethyl)amino)propan-2-yl)-5-hydroxypyrimidin-4(3H)-one] gave a pIC50 on E. coli LpxC of 6.00 to 7.00.

In turn, `CS(=O)(=O)NCC(Cc1ccc(C#Cc2ccc(CN3CCOCC3)cc2)cc1)c1nc[nH]c(=O)c1O` (stereo not shown) [Compound 80, N-(2-(5-hydroxy-6-oxo-1,6-dihydropyrimidin-4-yl)-3-(4-((4-(morpholinomethyl)phenyl)ethynyl)phenyl)propyl) methanesulfonamide] showed a pIC50 on E. coli LpxC of 6.00 to 7.00.

The molecule `Cc1nnc(NCC(Cc2ccc(C#Cc3ccc(CN4CCOCC4)cc3)cc2)c2nc[nH]c(=O)c2O)o1` (stereo not shown) [Compound 87, 5-hydroxy-6-(1-((5-methyl-1,3,4-oxadiazol-2-yl)amino)-3-(4-((4-(morpholinomethyl)phenyl)ethynyl)phenyl)propan-2-yl)pyrimidin-4(3H)-one] had a pIC50 at E. coli LpxC of 7.00 to 7.30.

Molecule `O=c1[nH]cnc(CCc2ccc(C#Cc3ccc(CN4CCOCC4)cc3)c(F)c2)c1O` [Compound 98, 6-(3-fluoro-4-((4-(morpholinomethyl)phenyl)ethynyl)phenethyl)-5-hydroxypyrimidin-4(3H)-one] gave a pIC50 on E. coli LpxC of over 8.00.

With `CO[C@H]1CCN(Cc2ccc(C#Cc3ccc(CC(C(=O)NCC(F)F)c4nc[nH]c(=O)c4O)cc3)cc2)C1` (stereo partly drawn) [Compound 105, N-(2,2-difluoroethyl)-2-(5-hydroxy-6-oxo-1,6-dihydropyrimidin-4-yl)-3-(4-((4-(((S)-3-methoxypyrrolidin-1-yl)methyl)phenyl)ethynyl)phenyl) propanamide], the pIC50 at E. coli LpxC is 7.00 to 7.30.

In turn, `COC1CN(Cc2ccc(C#Cc3ccc(CC(C(=O)NCC(F)F)c4nc[nH]c(=O)c4O)cc3)cc2)C1` (stereo not shown) [Compound 109, N-(2,2-difluoroethyl)-2-(5-hydroxy-6-oxo-1,6-dihydropyrimidin-4-yl)-3-(4-((4-((3-methoxyazetidin-1-yl)methyl)phenyl)ethynyl)phenyl) propanamide] gave a pIC50 on E. coli LpxC of 7.30 to 8.00.

Molecule `COCCc1ccc(C#Cc2ccc(CC(C(=O)NCC(F)F)c3nc[nH]c(=O)c3O)cc2)cc1` (stereo not shown) [Compound 114, N-(2,2-difluoroethyl)-2-(5-hydroxy-6-oxo-1,6-dihydropyrimidin-4-yl)-3-(4-((4-(2-methoxyethyl)phenyl)ethynyl)phenyl) propanamide] gave a pIC50 at E. coli LpxC of 7.00 to 7.30.

At E. coli LpxC, `N#CC1CN(Cc2ccc(C#Cc3ccc(CC(C(=O)NCC(F)F)c4nc[nH]c(=O)c4O)cc3)cc2)C1` (stereo not shown) [Compound 149, 3-(4-((4-((3-cyanoazetidin-1-yl)methyl)phenyl)ethynyl)phenyl)-N-(2,2-difluoroethyl)-2-(5-hydroxy-6-oxo-1,6-dihydropyrimidin-4-yl)propanamide] had a pIC50 of over 8.00.

`N#CCC1CCN(Cc2ccc(C#Cc3ccc(CC(C(=O)NCC(F)F)c4nc[nH]c(=O)c4O)cc3)cc2)CC1` (stereo not shown) [Compound 152, 3-(4-((4-((4-(cyanomethyl)piperidin-1-yl)methyl)phenyl)ethynyl)phenyl)-N-(2,2-difluoroethyl)-2-(5-hydroxy-6-oxo-1,6-dihydropyrimidin-4-yl)propanamide] gave a pIC50 on E. coli LpxC of 6.00 to 7.00.

As for `O=c1[nH]cnc(CCc2ccc(C#Cc3ccc(CN4CCOCC4)cc3F)cc2)c1O` [Compound 185, 6-(4-((2-fluoro-4-(morpholinomethyl)phenyl)ethynyl)phenethyl)-5-hydroxypyrimidin-4(3H)-one], the MIC in the experiment with S. aureus (setting [2]) is over 32 µg/mL; with E. coli (setting [2]), under 1 µg/mL; in the experiment on K. pneumoniae (setting [2]), under 1 µg/mL.

In the case of `O=c1[nH]cnc(CCc2ccc(C#Cc3ccc(CN4CCOCC4)c(F)c3)cc2)c1O` [Compound 186, 6-(4-((3-fluoro-4-(morpholinomethyl)phenyl)ethynyl)phenethyl)-5-hydroxypyrimidin-4(3H)-one], the results for the MIC with S. aureus (setting [2]), with E. coli (setting [2]) and in the experiment with K. pneumoniae (setting [2]) were over 32 µg/mL, under 1 µg/mL and under 1 µg/mL, respectively.

Consider `O=c1[nH]cnc(CCc2ccc(C#Cc3ccc(CN4CC(O)C4)cc3)c(F)c2)c1O` [Compound 187, 6-(3-fluoro-4-((4-((3-hydroxyazetidin-1-yl)methyl)phenyl)ethynyl)phenethyl)-5-hydroxypyrimidin-4(3H)-one], for which, in experiment [1], the activity at 4 µg/mL lay within 50 to 80%, the activity at 8 µg/mL lay within 50 to 80% and the activity at 16 µg/mL is 20 to 50%. Besides, the MIC in the experiment on S. aureus (setting [2]) is over 32 µg/mL. In addition, the MIC in the experiment on E. coli (setting [2]) is under 1 µg/mL. In the experiment on K. pneumoniae (setting [2]), the MIC is under 1 µg/mL.

Take `N#CC1CN(Cc2ccc(C#Cc3ccc(CCc4nc[nH]c(=O)c4O)cc3F)cc2)C1` [Compound 188, 1-(4-((2-fluoro-4-(2-(5-hydroxy-6-oxo-1,6-dihydropyrimidin-4-yl)ethyl)phenyl)ethynyl)benzyl)azetidine-3-carbonitrile]: the values for the MIC with S. aureus (setting [2]), in the experiment on E. coli (setting [2]) and in the experiment on K. pneumoniae (setting [2]) were over 32 µg/mL, under 1 µg/mL and 1 to 8 µg/mL (≈ 2.33 to 18.7 µM), respectively.

`O=c1[nH]cnc(CCc2ccc(C#Cc3ccc(CNC4CCOC4)cc3)cc2)c1O` (stereo not shown) [Compound 241, 5-hydroxy-6-(4-((4-(((tetrahydrofuran-3-yl)amino)methyl)phenyl)ethynyl)phenethyl)pyrimidin-4(3H)-one]: the MIC in the experiment with S. aureus (setting [2]) is over 32 µg/mL; in the experiment with E. coli (setting [2]), under 1 µg/mL; in the experiment with K. pneumoniae (setting [2]), under 1 µg/mL.

Take `COCCNCc1ccc(C#Cc2ccc(CCc3nc[nH]c(=O)c3O)cc2)cc1` [Compound 245, 5-hydroxy-6-(4-((4-(((2-methoxyethyl)amino)methyl)phenyl)ethynyl)phenethyl)pyrimidin-4(3H)-one]: the MIC in the experiment on S. aureus (setting [2]) is over 32 µg/mL; in the experiment with E. coli (setting [2]) it was under 1 µg/mL; in the experiment with K. pneumoniae (setting [2]), 1 to 8 µg/mL (≈ 2.48 to 19.8 µM).
